Test results as given in US4260630A, “Skin diseases” (priority 1977, dated 1981).

Key:
[1] = test system: yeast DNA; assay: Photobinding to yeast DNA in vivo (radiolabelled drug plus 365 nm light); type: binding, Saccharomyces cerevisiae
Description: (§1) The radioactivity of an aliquot (0.1 ml) of this solution was measured in 5 ml of scintillation mixture (Nuclear Entreprise, Ltd., Edinburgh, Scotland, NE 250).
(§2) For the in vivo determinations stationary phase cells of the haploid wild type strain N 123 were prepared as previously described.
(§3) 2 ml cell suspensions were exposed to several doses of 365 nm light. In parallel, non irradiated samples were incubated for the same periods. Immediately after incubation and/or irradiation, the samples were centrifuged and the pellet was washed 3 times with 5 ml of saline (0.9% NaCl). The washed cell pellet was resuspended in 1 ml of saline and 1 ml of 2 N NaOH was added in order to hydrolyze the RNA. The suspension was incubated overnight in the dark at room temperature, then cooled down on ice, and 2 ml of 50% TCA were added slowly. The samples were left 20 minutes on ice and the precipitated DNA was filtered on a glass fiber filter disc (Whatman GF/A, 2.1 cm diameter). In some cases the filtrate containing the acid-soluble material was kept aside, and the radioactivity of an aliquot added to 5 ml of NE250 scintillation mixture measured. The precipitate was washed 3 times with 5 ml of 5% cold TCA and 5 ml of 70% ethanol. The filters were then dried and the radioactivity measured in plastic counting vials containing 5 ml of scintillation mixture (NE 250) in a Tricarb Packard scintillation spectrophotometer.

[2] = test system: yeast RNA; assay: Photobinding to yeast RNA in vivo (radiolabelled drug plus 365 nm light); type: binding, Saccharomyces cerevisiae; conditions: for cpm for 10^8 cells: RNA; for Molecules 3-CPs/μg DNA / μg 3-CPs/μg DNA: binding to RNA
Description: as §1, §2, §3

[3] = test system: Saccharomyces cerevisiae; assay: Repair of photoinduced lesions in yeast (repair mutants, agar holding); type: cell-based
From the text: Biophys. Acta, 395, 393-404.
Consequently, it appears that the excision repair pathway in wild type and rad9-4 cells is essential in AHR for both compounds.

[4] = 40 min, 50.4 × 10^4 ergs.mm^-2 365 nm
[5] = 60 min, 75.6 × 10^4 ergs.mm^-2 365 nm
[6] = 5 min, 6.3 × 10^4 ergs.mm^-2 365 nm
[7] = 10 min, 12.6 × 10^4 ergs.mm^-2 365 nm
[8] = 15 min, 18.9 × 10^4 ergs.mm^-2 365 nm
[9] = 20 min, 25.2 × 10^4 ergs.mm^-2 365 nm
[10] = 30 min, 37.8 × 10^4 ergs.mm^-2 365 nm

## CCOC(=O)c1cc2cc3ccoc3cc2oc1=O [Example 3-CPs, 3-carboethoxypsoralen]
[1]; 30 min, 38.8 × 10^4 ergs.mm^-2 365 nm
  μg 3-CPs/μg DNA: 12 μg 3-CPs/μg DNA × 10^-2
[1]; [4]
  Molecules 3-CPs/μg DNA: 2.6 Molecules 3-CPs/μg DNA × 10^14
  cpm for 10^8 cells: 14248 cpm for 10^8 cells
  μg 3-CPs/μg DNA: 11 μg 3-CPs/μg DNA × 10^-2
[1]; [5]
  Molecules 3-CPs/μg DNA: 2.3 Molecules 3-CPs/μg DNA × 10^14
  cpm for 10^8 cells: 16476 cpm for 10^8 cells
  μg 3-CPs/μg DNA: 10 μg 3-CPs/μg DNA × 10^-2
[1]; dark, 50 minutes
  dark binding with DNA relative to that at lowest dose of irradiation: around 10%
[1]; in vivo
  365 nm light dose up to which binding with DNA increases linearly, then levels off: up to 25.2×10^3 J/m^2
  amount linked to DNA compared with RNA per cell: about the same as that bound to RNA per cell
  amount linked to DNA relative to 8-MOP: about 15 times more
  binding to DNA compared with 8-MOP: binds to DNA much more efficiently than 8-MOP
  difference in photoreactivity with DNA in vivo, 3-CPs vs 8-MOP: 15 factor
  difference in photoreactivity with DNA, 3-CPs vs 8-MOP: ≤ 20 factor
[1]; molecular basis
  photoaffinity to DNA compared with RNA: much higher than to RNA
[2]
  photoaffinity for RNA: relatively low photoaffinity for RNA
[2]; 5-60 min, no 365 nm light
  cpm for 10^8 cells: 1285 cpm for 10^8 cells
  Molecules 3-CPs/μg DNA: 0.0023 Molecules 3-CPs/μg DNA × 10^14
  μg 3-CPs/μg DNA: 0.01 μg 3-CPs/μg DNA × 10^-2
[2]; [6]
  cpm for 10^8 cells: 7130 cpm for 10^8 cells
  Molecules 3-CPs/μg DNA: 0.0130 Molecules 3-CPs/μg DNA × 10^14
  μg 3-CPs/μg DNA: 0.056 μg 3-CPs/μg DNA × 10^-2
[2]; [7]
  cpm for 10^8 cells: 11040 cpm for 10^8 cells
  Molecules 3-CPs/μg DNA: 0.020 Molecules 3-CPs/μg DNA × 10^14
  μg 3-CPs/μg DNA: 0.086 μg 3-CPs/μg DNA × 10^-2
[2]; [8]
  cpm for 10^8 cells: 14170 cpm for 10^8 cells
  Molecules 3-CPs/μg DNA: 0.026 Molecules 3-CPs/μg DNA × 10^14
  μg 3-CPs/μg DNA: 0.11 μg 3-CPs/μg DNA × 10^-2
[2]; [9]
  cpm for 10^8 cells: 18780 cpm for 10^8 cells
  Molecules 3-CPs/μg DNA: 0.034 Molecules 3-CPs/μg DNA × 10^14
  μg 3-CPs/μg DNA: 0.15 μg 3-CPs/μg DNA × 10^-2
[2]; [10]
  cpm for 10^8 cells: 25380 cpm for 10^8 cells
  Molecules 3-CPs/μg DNA: 0.046 Molecules 3-CPs/μg DNA × 10^14
  μg 3-CPs/μg DNA: 0.20 μg 3-CPs/μg DNA × 10^-2
[2]; [4]
  cpm for 10^8 cells: 29240 cpm for 10^8 cells
  Molecules 3-CPs/μg DNA: 0.053 Molecules 3-CPs/μg DNA × 10^14
  μg 3-CPs/μg DNA: 0.23 μg 3-CPs/μg DNA × 10^-2
[2]; [5]
  cpm for 10^8 cells: 31730 cpm for 10^8 cells
  Molecules 3-CPs/μg DNA: 0.058 Molecules 3-CPs/μg DNA × 10^14
  μg 3-CPs/μg DNA: 0.25 μg 3-CPs/μg DNA × 10^-2
[2]; dark, 50 minutes
  dark binding with RNA relative to that at lowest dose of irradiation: 20%
[2]; in vivo
  365 nm light dose up to which binding with RNA increases linearly, then levels off: up to 25.2×10^3 J/m^2
  difference in photoreactivity with RNA, 3-CPs vs 8-MOP: 3.4 factor
[3]; agar holding
  dark repair by strain defective in excision: unable to perform a dark repair
  repair by strain defective in recombination: reduced capacity to repair
[3]; plus 365 nm light
  interaction between rad2 and rad9 repair pathways: synergistic interaction
[3]; wild-type cells
  kinetics of agar holding recovery (AHR): same kinetics of AHR
